Data from EP0758233B1, “PDE IV INHIBITORS FOR TREATING MULTIPLE SCLEROSIS” (SCHERING AKTIENGESELLSCHAFT, priority 1994, dated 1995).

Experiments:
[1] = tested on: Experimental Allergic Encephalomyelitis (EAE); test: Prevention of Experimental Allergic Encephalomyelitis (EAE) in immunized marmosets; assay type: in vivo, Callithrix jacchus (common marmoset); settings: treatment stopped on day 60 following immunization; two marmosets; day counted from withdrawal
[2] = tested on: adoptive cell transfer (tEAE); test: EAE after adoptive cell transfer (tEAE) in Lewis rats; assay type: in vivo; settings: treatment after onset of symptoms; n = 5
Procedure: The results of our in vivo findings prompted us to perform treatment experiments in EAE after active immunization (aEAE) and adoptive cell transfer (tEAE) in Lewis rats. […] In clinically manifest EAE, treatment was started within 6 hours of the onset of symptoms. […] In tEAE similar effects were observed. […] Treatment after onset of symptoms also lead to a marked reduction in maximum severity (treated group: MMS 0.7 ± 0.10, n = 5; vehicle treated matched controls 2.45 ± 0.56, n = 5, p 0.01).

[3] = tested on: active EAE; test: Treatment of active (chronic) EAE in a marmoset; assay type: in vivo, Callithrix jacchus (common marmoset); settings: one marmoset with chronic EAE; escalating doses of Rolipram in DMSO
[4] = tested on: encephalitogenic CD4+ MBP-specific rat TCL (L1402); test: TNF/LT production by rat MBP-specific T-cell line, cytotoxicity bioassay; assay type: cell-based; settings: stereospecificity, (-)- versus (+)-enantiomer
Description: To assess the ability of rolipram alone or in various combinations as described to modify autoimmune processes, we investigated its influence on TNF production in vitro by MBP-specific T-cell lines from MS patients and Lewis rats. MBP is a major candidate antigen in MS, and T-cell-mediated immunity is of crucial importance in its pathogenesis. Similar to EAE, MBP-specific T-cells in humans are often cytotoxic, of Th1 type secreting interferon (IFN)-gamma and TNF/LT, and recognize epitopes that are also encephalitogenic in EAE.
Similar results were found using an encephalitogenic CD4+ MBP-specific rat TCL (L1402). […] Previous investigations had shown that inhibition of cAMP PDE by rolipram is stereospecific.
TNF and LT may both be produced by autoactive T-cells. CD4+ cells have been reported to be the major source of TFN in autoimmune insulitis of NOD mice. The cytokine bioassay for TNF/LT detection employed here is sensitive to TNF and LT, but is 200 times more sensitive to the former.

Structure (SMILES) | clinical signs of EAE following withdrawal of Rolipram [1] [days] | maximum severity, MMS [2] | MRI improvement following initiating Rolipram treatment [3] [days] | marked improvement (physical symptoms) after initiating treatment [3] [days] | times more effective than the (+)-enantiomer (inhibition of TNF/LT production) [4] [times]
COc1ccc(C2CNC(=O)C2)cc1OC1CCCC1 (centres unmarked) [Rolipram, 4-[(3-cyclopentyloxy)-4-methoxyphenyl)-2-pyrrolidinone] | 17 | 0.7 ± 0.10 | 14 | 10 | 
COc1ccc(C2CNC(=O)C2)cc1OC1CCCC1 (single isomer, unassigned; (-)) [(-)-rolipram] |  |  |  |  | 55
